Results on five compounds are retold here after patent publication US20240277874A1, “FLUORESCENCE-MAGNETIC RESONANCE DUAL-MODALITY CONTRAST AGENT, PREPARATION METHOD THEREFOR AND USE THEREOF” (HAINAN POLY PHARMACEUTICAL CO., LTD., priority 2021, published 2024).

Like-named read-outs stand apart in the source and are kept apart here.

Data set [1] has as its system ICR female mice. Particulars: mouse, in vivo, iv. The source says:
The maximum tolerated dose (MTD) of the contrast agent was preliminarily determined by administration to mice by tail intravenous injection.

A short description of data set [2]: Longitudinal relaxation rate (r1), 0.35T nuclear magnetic resonance imaging system, IR sequence. The class given is physicochemical. The following applies: for r1 in BSA solution(1%): bovine serum protein solution (1%, w/w); for r1 in Water: pure water. The procedure: The longitudinal relaxation rate (r1) of the contrast agent was determined in a 0.35T small nuclear magnetic resonance imaging system using an IR […] sequence. The relaxation rates of the contrast agent in pure water and in bovine serum protein solution (1%, w/w) in different solvents are shown in Table 3 below.

A short description of data set [3]: Stability of the aqueous contrast agent solution at room temperature, relative content by HPLC. The class given is physicochemical. Particulars: aqueous solution 0.1 mg/mL. How it is done:
The aqueous solution of the contrast agent (0.1 mg/mL) was left at room temperature and its stability was measured by calibrating its relative content by the HPLC method at different time points, and the stability of the contrast agent is shown in Table 4.

The test system of data set [4] is murine hepatocellular carcinoma cells H22. Kind of data set: Cell entry rate of the contrast agent by flow cytometry. The class given is cell-based. Particulars: compared among PL-002, PL-003, PL-004 and PL-006, FIG. 2. The procedure: The cell entry rate of the contrast agent at the cell level was determined by flow cytometers. Logarithmically grown murine hepatocellular carcinoma cells H22 were collected and spread evenly in 12-well plates, with an approximate cell number of 1.5×10^5 per well.
For orientation: A flow cytometer gives signals particle by particle.

Data set [5] has as its system H22 liver in situ tumors in Balb/c mice. Kind of data set: Magnetic resonance T1-enhanced imaging of liver in situ tumors, GE 3.0T system. In kind it is in vivo. Particulars: Balb/c mice with H22 liver in situ tumor, 1 mg/mL solution, 5 mL/kg tail iv, FIG. 3. The procedure: Magnetic resonance imaging of liver in situ tumors with a contrast agent was performed using a GE 3.0T magnetic resonance imaging system. H22 cells were inoculated in Balb/c mice through liver in-situ injection, and liver conditions were observed through magnetic resonance. After the tumor was formed, 1 mg/mL contrast agent solution (5 mL/kg) was injected through the tail intravenous, and the liver was subjected to magnetic resonance T1-enhanced imaging at different time points after the administration of the agent.

The subject of data set [6] is major organs of liver in situ tumor mice. Kind of data set: Tissue fluorescence of liver in situ tumor mice, small animal live imaging analyzer. The class given is in vivo. The following applies: organs removed after magnetic resonance imaging, FIG. 4. The text has this:
Liver in situ tumor mice tissue fluorescence was observed by a small animal live imaging analyzer (Perkin Elmer). After magnetic resonance imaging, the major organs of the mice were removed and observed by live imaging, and the results are shown in FIG. 4.

For data set [7], the system named is liver and kidney of ICR mice. Kind of data set: Magnetic resonance T1-enhanced imaging (SE sequence) of liver and kidney after tail intravenous injection. The class given is in vivo. Particulars: tail iv 5 mg/kg and 30 mg/kg, FIG. 1A. How it is done:
(§1) • 1. IR-820 (new indocyanine green) and 3,6,9-trioxaundecamethylenediamine (1:1-1:5 eq.) were added to the DMSO solution. And then the triethylamine as the deacid reagent was added to the mixture. The mixture reacted at 20-80° C. for 2 h. The desired product B01 was obtained after precipitation. • 2. B01 and DOTA-NHS ([…] is N-hydroxysuccinimide) (1:1-1:3 eq.) were dissolved in DMSO solution, and 1-20 equivalents of triethylamine was added to the mixture. The mixture reacted at 10-40° C. for 24 h. The desired product B02 was obtained after precipitation. • 3. B02 was reacted with 0.5-2 equivalents of gadolinium chloride hydrate in DMSO at 10-50° C. for 10 h-50 h, and the desired product PL-001 was obtained after precipitation, yield of 83%, purity of 91%. • 4. The final product was dissolved in pure water to create a solution. The product was administered to ICR mice by tail intravenous injection at doses of 5 mg/kg and 30 mg/kg, respectively. Magnetic resonance T1-enhanced imaging (SE sequence) was performed on the liver and kidney of the mice before and after the administration of the product. After the magnetic resonance imaging was completed, the livers and kidneys were removed for fluorescence imaging. […] From the figure, it can be seen that the magnetic resonance enhancement and fluorescence imaging results of the liver and kidney were basically consistent.

The subject of data set [8] is liver and kidney of ICR mice. Kind of data set: Fluorescence imaging of removed livers and kidneys after magnetic resonance imaging. In kind it is in vivo. Particulars: 6 hours after administration, FIG. 1C. The procedure:
as §1

The conditions of data set [9]: normal people, 20 minutes after intravenous injection; cited from earlier work.
Data set [10] deals with ICR female mice. The following applies: value marked * with footnote not given; 60 is not among the tested doses; cited from earlier work.

Regarding `CC1(C)C(/C=C/C2=C(Oc3ccc(CCC(=O)NCCOCCOCCNC(=O)CN4CCN(CC(=O)[O-])CCN(CC(=O)[O-])CCN(CC(=O)[O-])CC4)cc3)C(=C/C=C3/N(CCCCS(=O)(=O)O)c4ccc5ccccc5c4C3(C)C)/CCC2)=[N+](CCCCS(=O)(=O)O)c2ccc3ccccc3c21.[Gd+3]` [PL-004], in the data set on ICR female mice [1], the MTD is on record as 125 mg/kg. Besides, the “r1 in BSA solution(1%)” value in data set [2] worked out at 17.6 mM⁻¹ s⁻¹. The “r1 in Water” value in data set [2] is 14.7 mM⁻¹ s⁻¹. Also, the decomposition rate % in [3] (0 h) is listed as 0%; in [3] (2 h) it was “<LOQ”; in data set [3] (24 h) it was “<LOQ”; in data set [3] (48 h), “<LOQ”.
The compound `CC1(C)C(/C=C/C2=C(Oc3ccc(CCC(=O)NCCCCCCCCCCNC(=O)CN4CCN(CC(=O)[O-])CCN(CC(=O)[O-])CCN(CC(=O)[O-])CC4)cc3)C(=C/C=C3/N(CCCCS(=O)(=O)O)c4ccc5ccccc5c4C3(C)C)/CCC2)=[N+](CCCCS(=O)(=O)O)c2ccc3ccccc3c21.[Gd+3]` [PL-003] gave an MTD in the data set on ICR female mice [1] of 150 mg/kg. For the same compound, the “r1 in BSA solution(1%)” value in data set [2] came out at 18.9 mM⁻¹ s⁻¹. For the same compound, the “r1 in Water” value in data set [2] was 15.4 mM⁻¹ s⁻¹. Moreover, the cell entry rate result in data set [4] is “fastest cellular entry”. Besides, the “magnetic resonance T1 enhancement of the tumor site” value in [5] is recorded as “better enhancement effect”. The decomposition rate % in [3] (0 h) is given as 0%; in data set [3] (2 h), “<LOQ”; in [3] (24 h) it was “<LOQ”; in data set [3] (48 h), “<LOQ”. In data set [6], the “distinction of tumor from normal tissue and fluorescence intensity” value was “tumor is distinguished from the normal tissue and has better fluorescence intensity”.
In the data set on ICR female mice [1], `CC1(C)C(=CC=C2CCCC(C=CC3=[N+](CCCCS(=O)(=O)O)c4ccc5ccccc5c4C3(C)C)=C2NCCCOCCOCCOCCCNC(=O)CN2CCN(CC(=O)[O-])CCN(CC(=O)[O-])CCN(CC(=O)[O-])CC2)N(CCCCS(=O)(=O)O)c2ccc3ccccc3c21.[Gd+3]` [PL-001] had an MTD of 75 mg/kg. Besides, the decomposition rate % in data set [3] (0 h) is on record as 0%; in data set [3] (2 h), 5.9%; in data set [3] (24 h) it was 40.0%; in [3] (48 h), 65.4%. Besides, in data set [7], the “magnetic resonance T1-enhanced imaging of liver and kidney” value is “significant enhancement of liver and kidney”. In data set [8], the “fluorescence imaging of liver and kidney” value is “significant fluorescence of the liver and kidney”.
In the data set with ICR female mice [1], `CC1(C)C(/C=C/C2=C(Oc3ccc(CCC(=O)NCCOCCOCCOCCNC(=O)CN4CCN(CC(=O)[O-])CCN(CC(=O)[O-])CCN(CC(=O)[O-])CC4)cc3)C(=C/C=C3/N(CCCCS(=O)(=O)O)c4ccc5ccccc5c4C3(C)C)/CCC2)=[N+](CCCCS(=O)(=O)O)c2ccc3ccccc3c21.[Gd+3]` [PL-002] yielded an MTD of 125 mg/kg. Also, the “r1 in BSA solution(1%)” value in data set [2] came to 16.2 mM⁻¹ s⁻¹. The “r1 in Water” value in data set [2] was found to be 11.8 mM⁻¹ s⁻¹. The decomposition rate % in data set [3] (0 h) is listed as 0%; in data set [3] (2 h), “<LOQ”; in data set [3] (24 h) it was “<LOQ”; in data set [3] (48 h) it was “<LOQ”.
On to `CC1(C)C(/C=C/C=C/C=C/C=C2\N(CCCCS(=O)(=O)O)c3ccc4ccccc4c3C2(C)C)=[N+](CCCCS(=O)(=O)[O-])c2ccc3ccccc3c21` [ICG, Indocyanine green], for which the “eliminated from the blood” value in data set [9] is recorded as “about 97%”. Moreover, the MTD with ICR female mice [10] is recorded as 60* mg/kg.
